This is an account of results in ChEMBL document CHEMBL1150702, “3,3',5'-Tri-O-methylpiceatannol and 4,3',5'-tri-O-methylpiceatannol: improvements over piceatannol in bioactivity” (J Nat Prod, 1987).

The LC50 is the concentration that kills 50% of the test population. A high value points to a less lethal substance. Broadly, the T/C is the ratio of treated to control.

The subject of one data set is Artemia salina. Kind of data set: Toxicity in Artemia salina. The conditions noted are these: in vivo. The format is organism-based.
Data set [1] in a line: In vivo cytotoxicity against mouse 3PS cells at 50 mg/kg relative to control. The class given is functional.
The nature of data set [2]: Cytotoxicity against human 9KB cells. The class given is functional. The following applies: read-out: ED50 (the source's name).
Data set [3] relates to Agrobacterium tumefaciens. Kind of data set: Antitumor activity against Agrobacterium tumefaciens-induced crown gall tumor in potato tubers by potato disk test. The format is functional.
Data set [4] in a line: Cytotoxicity against mouse 9PS cells. The conditions noted are these: read-out: ED50 (the source's name). The format is functional.
The next data set relates to Mus musculus. Kind of data set: In vivo cytotoxicity against mouse 3PS cells up to 200 mg/kg relative to control. The class given is functional, organism-based. Set-up: dose 200 mg/kg.

Converted amounts (≈) assume the structure as drawn. The source made the active and inactive calls. The rule behind the calls is not given here.

`Oc1cc(O)cc(/C=C/c2ccc(O)c(O)c2)c1` [PICEATANNOL] returned an LC50 in the data set on Artemia salina of 278 ppm.

In the case of `COc1cc(C=O)ccc1O` [VANILLIN], the LC50 with Artemia salina was determined as 31 ppm.

With `COc1cc(/C=C/c2ccc(OC)c(O)c2)cc(OC)c1`, in the data set on Artemia salina, the LC50 worked out at 2.8 ppm. The compound also gave a T/C in data set [1] of 119%. Further, the EC50 in data set [2] is less than 0.01 µg/mL; in data set [4], 0.1 µg/mL (≈ 0.349 µM). Further, in data set [3], the “inhibition (INH)” value amounted to 22%.

For the compound `COc1ccc(C=O)cc1O` [ISOVANILLIN], the LC50 in the data set on Artemia salina was found to be 31 ppm.

Turning to `COc1cc(/C=C/c2ccc(O)c(OC)c2)cc(OC)c1`, the LC50 in the data set with Artemia salina is reported as greater than 1000 ppm. The EC50 in data set [2] worked out at 0.25 µg/mL (≈ 0.873 µM). Moreover, in data set [3], the “inhibition (INH)” value came out at 19%. Besides, in the data set with Mus musculus, the outcome was inactive.
